From publication PMC8784342, “Investigation of sugar binding kinetics of the E. coli sugar/H^+ symporter XylE using solid-supported membrane-based electrophysiology” (The Journal of Biological Chemistry, 2021)
“And” between values parts separate entries of the source, which are not always exact repeats. Identical values can stand only once.

Legend:
[1] = biological target: wt XylE (Escherichia coli, UniProt P0AGF4); assay: biochemical; design: made in house; host or cells: E. coli BL21 DE3
Procedure: (§1) Reconstitution of purified proteins (2–20 mg/ml) was carried out with E. coli phospholipids (Avanti Polar Lipids, E. coli polar lipid extract). Preformed liposomes (0.2–2 ml, 10 mg/ml) were dissolved in 1% (w/v) n-octyl-β-D-glucoside, and the protein suspension was mixed on ice to a concentration of 0.2 mg protein/mg lipid (LPR 5).
(§2) Wt XylE, wt FucP, and the mutant proteins were reconstituted using overnight incubation in 400 mg/ml BioBeads (SM-2 Adsorbent Media, Bio-Rad) at 4 °C. After reconstitution, the samples were diluted to 2.5 mg/ml lipid concentration, frozen in liquid nitrogen, and stored at −80 °C. For wt LacY and mutant proteins, this procedure was not successful. We, therefore, applied the previously established n-octyl-β-D-glucoside dilution method (1:100) ([69]).
(§3) SSM measurements were performed as described ([20], [23]). After thawing the sample and sonication in a water bath, 30 μl of proteoliposomes (2.5 mg/ml lipid at LPR 5) was allowed to adsorb for 1 to 2 h to an octadecanethiol/phosphatidylcholine hybrid bilayer on a gold surface (the sensor).
(§4) For measurements, a single solution exchange configuration ([23]) was employed that consisted in three phases of 0.5 s duration each: Flow of nonactivating solution (NA), activating solution (A), and nonactivating solution (NA). Only the activating solution contained the sugar. When pH dependence is determined, pH of NA and A solutions during one experiment are kept constant. Between experiments using different pH values, the sensor was incubated at the new pH for 3 min to equilibrate the intraliposomal pH.
(§5) Instruments with different time resolution were used as required. […] Currents were recorded throughout the entire time and amplified with a current amplifier set to a gain of […] and a rise time of 10 ms (low time-resolution set up) or 3 ms (high time-resolution set up).
(§6) All NA solutions were buffered in 100 mM KPi at a given pH value. NA solutions used with LacY contained 1 mM DTT in addition. A solutions were made from NA solutions by adding the respective sugar at a given concentration to induce the symport reaction. Sugar concentration jumps initiated sugar-proton symport, and charge transfer was measured by capacitive coupling. Therefore, only transient currents were recorded.
(§7) Each dataset represented with error bars was generated by performing the same experiment on multiple sensors (n ≥ 3). Error bars represent standard deviations of the average value. When peak currents are averaged across sensors, datasets are normalized before averaging. When the protein catalyzes transport and PSS currents are negligible, the peak current of the transient represents a good approximation of the current generated by the steady-state symport activity of the transporter. In most cases, peak currents have been used to derive kinetic and thermodynamic parameters according to the equations given in Figure 2 (KM, Imax ∼ Vmax, Hill coefficient n), Figure 4 (KD and rate constants for sugar binding kon and release koff), and Figure 6 (pKa for proton binding and pKb for proton release). Reconstruction of transporter currents for analysis of biphasic currents has been performed as described previously ([70]). This is required when transport and PSS currents are observed at the same time.

[2] = biological target: T1, wt LacY (Escherichia coli, UniProt P02920); assay: SSM-based electrophysiology, proteoliposomes with wt LacY; format: biochemical; details: pH 7.6
T1 construct: made in house; host or cells: E. coli XL1-Blue
T1 sequence (P02920 1-417): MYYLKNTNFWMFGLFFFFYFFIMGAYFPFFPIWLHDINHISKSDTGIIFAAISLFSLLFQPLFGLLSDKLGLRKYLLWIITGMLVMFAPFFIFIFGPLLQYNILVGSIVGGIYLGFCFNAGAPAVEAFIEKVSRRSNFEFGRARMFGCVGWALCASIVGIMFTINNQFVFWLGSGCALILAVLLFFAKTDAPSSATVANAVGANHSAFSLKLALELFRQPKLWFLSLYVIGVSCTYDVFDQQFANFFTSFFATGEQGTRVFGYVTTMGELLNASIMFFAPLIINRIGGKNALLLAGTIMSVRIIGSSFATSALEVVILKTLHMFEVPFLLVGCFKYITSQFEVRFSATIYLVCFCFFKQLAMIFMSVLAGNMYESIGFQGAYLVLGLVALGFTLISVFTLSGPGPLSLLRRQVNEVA
Procedure: as §1, §2, §3, §4, §5, §6, §7

[3] = biological target: T2, E325A LacY (Escherichia coli, UniProt P02920, E325A); assay: SSM-based electrophysiology, transport-deficient mutant E325A LacY (PSS currents, electrogenic binding); format: biochemical
T2 construct: made in house; host or cells: E. coli XL1-Blue
Procedure: as §1, §2, §3, §4, §5, §6, §7

[4] = biological target: T3, wt FucP (Escherichia coli, UniProt P11551); assay: SSM-based electrophysiology, proteoliposomes with wt FucP; format: biochemical
T3 construct: made in house; host or cells: E. coli BL21 DE3
T3 sequence (P11551 1-438): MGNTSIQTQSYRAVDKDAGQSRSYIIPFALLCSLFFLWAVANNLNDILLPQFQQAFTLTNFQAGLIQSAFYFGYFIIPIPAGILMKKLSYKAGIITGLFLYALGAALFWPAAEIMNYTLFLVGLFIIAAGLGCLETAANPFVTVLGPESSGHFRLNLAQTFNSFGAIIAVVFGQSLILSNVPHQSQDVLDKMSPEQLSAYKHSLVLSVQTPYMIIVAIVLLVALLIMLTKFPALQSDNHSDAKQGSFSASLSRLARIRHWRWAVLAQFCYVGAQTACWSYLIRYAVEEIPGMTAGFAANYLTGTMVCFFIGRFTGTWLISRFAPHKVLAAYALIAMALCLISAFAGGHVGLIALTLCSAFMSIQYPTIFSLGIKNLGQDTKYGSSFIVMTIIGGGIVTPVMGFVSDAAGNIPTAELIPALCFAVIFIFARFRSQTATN
Procedure: as §1, §2, §3, §4, §5, §6, §7

[5] = biological target: T4, D27N XylE (Escherichia coli, UniProt P0AGF4, D27N); assay: SSM-based electrophysiology, transport-deficient mutant D27N XylE (PSS currents, electrogenic binding); format: biochemical
T4 construct: made in house; host or cells: E. coli BL21 DE3
Procedure: as §1, §2, §3, §4, §5, §6, §7

[6] = biological target: T5, D46N FucP (Escherichia coli, UniProt P11551, D46N); assay: SSM-based electrophysiology, transport-deficient mutant D46N FucP (PSS currents); format: biochemical
T5 construct: made in house; host or cells: E. coli BL21 DE3
Procedure: as §1, §2, §3, §4, §5, §6, §7

[7] = biological target: T6, Q175I/L297F XylE (Escherichia coli, UniProt P0AGF4, L297F/Q175I); assay: biochemical
T6 construct: made in house; host or cells: E. coli BL21 DE3
Procedure: as §1
as §2, with “For wt LacY and mutant proteins, this procedure was not successful.” left out
as §3, §4, §5, §6, §7

[8] = system: XylE; details: uptake and competition-uptake assays; cited from earlier work
[9] = biological target: XylE; design: method as in PMID 23075985; details: read-out: KD, isothermal titration calorimetry; cited from earlier work
[10] = EC50,1, double Michaelis–Menten fit, pH 7.6, peak currents
[11] = EC50,2, double Michaelis–Menten fit, pH 7.6, peak currents
[12] = pH 7.6, peak currents, Hill equation
[13] = reconstructed transporter currents, alkaline range, double titration

wt XylE, sequence (P0AGF4 whole entry): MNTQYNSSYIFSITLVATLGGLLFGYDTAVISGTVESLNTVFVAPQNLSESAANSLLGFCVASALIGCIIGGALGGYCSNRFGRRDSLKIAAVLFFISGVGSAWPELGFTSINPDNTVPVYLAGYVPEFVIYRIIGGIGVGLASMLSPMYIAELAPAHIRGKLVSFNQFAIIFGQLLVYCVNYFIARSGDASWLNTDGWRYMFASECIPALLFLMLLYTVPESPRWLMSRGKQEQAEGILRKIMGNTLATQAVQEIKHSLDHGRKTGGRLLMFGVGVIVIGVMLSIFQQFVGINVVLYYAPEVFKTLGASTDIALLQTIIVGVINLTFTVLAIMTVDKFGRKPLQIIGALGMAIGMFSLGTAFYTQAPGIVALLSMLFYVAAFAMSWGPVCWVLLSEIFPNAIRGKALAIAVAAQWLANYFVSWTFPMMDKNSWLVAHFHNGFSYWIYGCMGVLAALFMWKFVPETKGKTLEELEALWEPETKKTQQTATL
T2 sequence (P02920 whole entry E325A): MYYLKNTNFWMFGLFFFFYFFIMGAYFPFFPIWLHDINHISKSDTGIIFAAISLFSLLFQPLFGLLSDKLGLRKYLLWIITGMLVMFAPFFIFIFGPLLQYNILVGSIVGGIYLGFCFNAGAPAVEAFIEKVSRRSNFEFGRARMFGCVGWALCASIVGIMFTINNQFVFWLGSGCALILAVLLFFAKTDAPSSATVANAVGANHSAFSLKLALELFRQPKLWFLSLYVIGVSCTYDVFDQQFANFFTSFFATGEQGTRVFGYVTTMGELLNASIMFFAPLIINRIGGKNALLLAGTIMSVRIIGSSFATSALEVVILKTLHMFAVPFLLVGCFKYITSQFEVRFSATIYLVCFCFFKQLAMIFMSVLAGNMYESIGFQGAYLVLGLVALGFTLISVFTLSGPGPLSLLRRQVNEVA
T6 sequence (P0AGF4 whole entry Q175I/L297F): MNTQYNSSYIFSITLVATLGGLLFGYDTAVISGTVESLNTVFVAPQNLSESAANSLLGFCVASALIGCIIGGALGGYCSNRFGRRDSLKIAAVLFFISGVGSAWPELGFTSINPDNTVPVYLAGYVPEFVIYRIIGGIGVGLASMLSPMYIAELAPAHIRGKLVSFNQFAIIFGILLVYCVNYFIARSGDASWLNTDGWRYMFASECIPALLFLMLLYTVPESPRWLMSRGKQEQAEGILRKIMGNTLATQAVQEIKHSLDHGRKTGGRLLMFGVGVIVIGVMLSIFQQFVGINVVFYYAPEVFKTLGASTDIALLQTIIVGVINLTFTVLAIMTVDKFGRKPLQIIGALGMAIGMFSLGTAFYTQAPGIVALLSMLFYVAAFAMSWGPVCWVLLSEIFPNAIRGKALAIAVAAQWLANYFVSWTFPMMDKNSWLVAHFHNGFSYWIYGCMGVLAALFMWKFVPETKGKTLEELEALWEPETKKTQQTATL
T4 sequence (P0AGF4 whole entry D27N): as the sequence (P0AGF4 whole entry Q175I/L297F) above, with D27N, I175Q, F297L counted along it
T5 sequence (P11551 whole entry D46N): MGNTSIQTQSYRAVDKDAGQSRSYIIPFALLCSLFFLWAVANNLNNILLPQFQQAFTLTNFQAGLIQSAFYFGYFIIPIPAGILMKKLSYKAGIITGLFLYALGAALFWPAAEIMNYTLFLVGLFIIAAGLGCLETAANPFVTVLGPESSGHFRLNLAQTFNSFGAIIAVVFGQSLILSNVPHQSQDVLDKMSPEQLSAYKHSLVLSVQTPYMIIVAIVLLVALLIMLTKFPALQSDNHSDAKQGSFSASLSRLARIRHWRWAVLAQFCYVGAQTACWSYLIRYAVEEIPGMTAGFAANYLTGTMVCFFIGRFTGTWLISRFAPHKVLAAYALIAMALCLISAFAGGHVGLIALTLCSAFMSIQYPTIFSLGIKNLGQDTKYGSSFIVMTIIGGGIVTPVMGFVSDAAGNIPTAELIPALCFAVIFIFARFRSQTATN

## 6-Deoxy-D-glucose
[1]; pH 7.0
  induction of currents (substrate identification): generated signals identifying them as substrates
[1]; pH 7.6
  Imax in percent of Imax of the main substrate (D-xylose): 35 ± 5%
[1]; pH 7.6, minor substrate, peak currents, low time-resolution set up, read-out: KM (mM) Michaelis–Menten equation
  Km: 0.2 ± 0.05 mM

## OC[C@H]1O[C@@H](O[C@@H]2[C@@H](CO)OC(O)(CO)[C@H]2O)[C@H](O)[C@@H](O)[C@H]1O (mixture of isomers) [Lactulose]
[2]; EC50,1, double Michaelis–Menten fit, peak currents
  EC50: 880 ± 100 µM
[2]; EC50,2, double Michaelis–Menten fit, peak currents
  EC50: 90000 ± 42000 µM
[2]
  Imax in percent of Imax of the main substrate (D-lactose): 71 ± 8%
[2]; peak currents, Hill equation
  n (Hill coefficient): 0.55 ± 0.08
[3]
  Kd: 5000 ± 600 µM
[3]; pH 7.6, saturating substrate (100 mM D-lactose, lactulose; 5 mM TDG)
  Q (pC) Mut, transferred charge: 2.2 ± 0.5 (pH 7.6) pC
[3]; saturating substrate (100 mM D-lactose, lactulose; 5 mM TDG), kobs = 1/τ, limited by time resolution
  kobs (s^−1) mut: 380 ± 40 s⁻¹

## OC[C@H]1OC(O)[C@@H](O)[C@H](O)[C@@H]1O (stereo partly drawn) [D-altrose]
[4]; pH 8.0
  induction of currents (substrate identification): generated signals identifying them as substrates

## OC1OC[C@@H](O)[C@@H](O)[C@@H]1O (stereo partly drawn) [D-arabinose]
[4]; [10]
  EC50: 820 ± 530 µM
[4]; [11]
  EC50: 38000 ± 9000 µM
[4]; pH 7.6
  Imax in percent of Imax of the main substrate (L-fucose): 132 ± 13%
[4]; [12]
  n (Hill coefficient): 0.62 ± 0.04

## OC[C@H]1OC(O)[C@H](O)[C@@H](O)[C@@H]1O (stereo partly drawn) [D-glucose]
[5]; KD (mM) mut, pH 7.6, hyperbolic fit of peak currents, in Table 3 headed EC50
  Kd: 1.9 ± 0.35 mM
[5]; KD from fit of concentration-dependent kobs, pH 7.6
  Kd: 0.67 ± 0.1 mM
[5]; pH 7.6
  Imax (nA) slow component: <0.05 nA
[5]; pH 7.6, 30 mM substrate
  Q (pC) Mut, transferred charge: 1.1 ± 0.3 (pH 7.6) pC
[5]; pH 7.6, saturating substrate
  IPeak (pA) fast component: 60 pA and 60 ± 25 pA
[5]; saturating substrate (30 mM), kobs = 1/τ, monoexponential fit, limited by time resolution
  kobs (s^−1) mut: 300 ± 40 s⁻¹
[6]
  induction of PSS currents: do not generate PSS currents
[7]; pH 7.6, saturating substrate
  IPeak (pA) fast component: 240 pA and 240 ± 40 pA
[7]; reconstructed transporter currents, acidic range
  pKa: 4.6 ± 0.1
[7]; [13]
  pKb1: ~7.5 and 7.3 ± 0.1
  pKb2: 9.8 ± 0.2
[8]
  transport of radioactively labeled sugar: not transported
[9]
  Kd: 770 µM
[1]
  Kb: 0.0398 nM
[1]; [10]
  EC50: 160 ± 10 µM
[1]; [11]
  EC50: 6500 ± 900 µM
[1]; EC50, Hill fit, pH 7.6, peak currents, Hill equation
  EC50: 920 ± 120 µM
[1]; apparent EC50 (half saturation constant, Michaelis–Menten equation; KM column), pH 7.6, D-glucose-induced slow PSS current, not transport
  EC50: 380 µM and 400 µM
[1]; pH 3.0, 30 mM substrate
  Q (pC) wt, PSS transferred charge: 2.5 ± 1 (pH 3.0) pC
[1]; pH 7.0
  slow peak current amplitude compared with D-xylose-induced currents: 26%
[1]; pH 7.6
  Imax in percent of Imax of the main substrate (D-xylose): 26% and 26 ± 5%
[1]; pH 7.6, hyperbolic fit of peak current
  Imax (nA) slow component: 0.47 ± 0.1 nA
[1]; [12]
  n (Hill coefficient): 0.57 ± 0.03
[1]; pH 7.6, saturating substrate, transport current given as upper limit
  IPeak (pA) fast component: <470 pA
[1]; pH-dependent peak currents, acidic range
  pKa: 4.7 ± 0.1
